System: A549
Assay: Antiproliferative activity against human A549 cells after 48 hrs by CCK-8 assay
Assay type: functional, cell-based
Conditions: A549, 48 h

C(#CC1NCCc2cc(OCc3ccccc3)c(OCc3ccccc3)cc21)c1ccccc1 (configuration not stated) showed an IC50 of 22.4 µM.
In the case of COc1cc2c(cc1OC)C(C#Cc1ccccc1)NCC2 (configuration not stated), the IC50 is reported as 40.1 µM.

Reference: ChEMBL document CHEMBL4229361, “A novel tetrahydroisoquinoline (THIQ) analogue induces mitochondria-dependent apoptosis” (Eur J Med Chem, 2018)
